Measurements as given in patent US20250281380A1, “Skincare Formulation for Multi-Modal Reduction of Acetylcholine Concentration and Activity” (JAMRM, LLC, priority 2021, published 2025).

System: ACh release, MatTek FT full-thickness model of human skin (human epidermal keratinocytes and human dermal fibroblasts)
Assay: MatTek FT tissue model, ACh concentration in the tissue culture media
Type: cell-based
Excerpt: The MatTek FT™ tissue model was used to determine whether treatment with the test formulation would impact ACh release in vitro. The MatTek FT™ tissue model is a three-dimensional, full-thickness model of human skin formed from cultured human epidermal keratinocytes and human dermal fibroblasts. […] The MatTek FT™ tissue model allows for the performance of preclinical studies to evaluate mechanisms of action for skincare products.
A first untreated tissue model served as a control sample and was maintained in a tissue culture media. A second tissue model was maintained in a tissue culture media and treated daily with the test formulation. A third tissue model was maintained in a tissue culture media and exposed to Neostigmine, an acetylcholinesterase inhibitor that prevents the breakdown of ACh in the tissue culture media. A fourth tissue model was maintained in a tissue culture media, treated daily with the test formulation, and exposed to Neostigmine. The amount of ACh created by each of the tissue models was determined by measuring the ACh concentration in the tissue culture media. The results can be seen in FIG. 1.

Question: Which results are given for `CN(C)C(=O)Oc1cccc([N+](C)(C)C)c1` [Neostigmine]?
Answer: accumulation of ACh (ACh concentration in tissue culture media) (FIG. 1, tissue model exposed to Neostigmine alone (third tissue model), time not stated): about 200 picograms per ml of solution; ACh concentration at 72 hours, in words, effect of presence of neostigmine (FIG. 2, 72 hours, neostigmine in the untreated tissue model): relatively higher concentrations of ACh
